Test [1] concerns Schistosoma mansoni. The experiment in a line: Antischistosomal activity against newly transformed Schistosoma mansoni assessed as decrease in viability after 72 hrs. The class given is functional, organism-based.
The subject of test [2] is Schistosoma mansoni. The experiment in a line: Antischistosomal activity against newly transformed Schistosoma mansoni assessed as death at 8.33 microg/ml after 72 hrs. It is filed as functional, organism-based.
Test [3] has as its system Schistosoma mansoni. The test is described as follows: Antischistosomal activity against newly transformed Schistosoma mansoni assessed as death at 2.78 microg/ml after 72 hrs. The class given is functional, organism-based.
A further test has as its system L6. The test is described as follows: Cytotoxicity against rat L6 cells after 24 hrs by Resazurin dye. It is filed as cell-based. The note with it: L6, 24 h. For orientation: The colour change of resazurin is a common sign of viable cells or microbes.
Test [4] concerns Schistosoma mansoni. The experiment in a line: Antischistosomal activity against Schistosoma mansoni infected in NMRI mouse assessed as mouse cured at 400 mg/kg, po treated after 49 days of infection measured after 21 days post treatment. It is filed as functional, organism-based. Details: dose 400 mg/kg.
The test system of test [5] is Schistosoma mansoni. The experiment in a line: Antischistosomal activity against Schistosoma mansoni infected in NMRI mouse assessed as reduction of total worm burden at 400 mg/kg, po treated after 49 days of infection measured after 21 days post treatment. The class given is functional.
Test [6] relates to Schistosoma mansoni. The experiment in a line: Antischistosomal activity against Schistosoma mansoni infected in NMRI mouse assessed as reduction of female worm burden at 400 mg/kg, po treated after 49 days of infection measured after 21 days post treatment. The class given is functional.

Activity calls are given as the source filed them. The calls are words filed in the database; no cut-off is given here.

With `COC(=O)[C@]12CC[C@@H](C(C)C)[C@@H]1[C@H]1CC[C@@H]3[C@@]4(C)C[C@H](CCC[P+](c5ccccc5)(c5ccccc5)c5ccccc5)[C@@H](O)C(C)(C)[C@@H]4CC[C@@]3(C)[C@]1(C)CC2`, in the test on Schistosoma mansoni [1], the result was Active.
Regarding `COC(=O)[C@]12CC[C@@H](C(C)C)[C@@H]1[C@H]1CC[C@@H]3[C@@]4(C)C[C@H](CCC[P+](c5ccccc5)(c5ccccc5)c5ccccc5)[C@H](OC(C)=O)C(C)(C)[C@@H]4CC[C@@]3(C)[C@]1(C)CC2.[Br-]`, the IC50 in the test on Schistosoma mansoni [1] amounted to 1.46 µg/mL. Also, the result in the test on Schistosoma mansoni [2] was Active.
For `COC(=O)[C@]12CC[C@@H](C(C)C)[C@@H]1[C@H]1CC[C@@H]3[C@@]4(C)C[C@H](CCC[P+](c5ccccc5)(c5ccccc5)c5ccccc5)[C@H](O)C(C)(C)[C@@H]4CC[C@@]3(C)[C@]1(C)CC2`, the result in the test with Schistosoma mansoni [1] was Active.
Regarding `C=C(C[P+](c1ccccc1)(c1ccccc1)c1ccccc1)[C@@H]1CC[C@]2(COC(C)=O)CC[C@]3(C)[C@H](CC[C@@H]4[C@@]5(C)CC[C@H](OC(C)=O)C(C)(C)[C@@H]5CC[C@]43C)[C@@H]12.[Br-]`, the result in the test on Schistosoma mansoni [3] and in the test on Schistosoma mansoni [2] was Active. Also, the IC50 with L6 and with Schistosoma mansoni [1] was 0.64 µg/mL throughout. Besides, the outcome in the test with Schistosoma mansoni [4] was inactive. Moreover, the results for the inhibition in vivo at 400 mg/kg in the test on Schistosoma mansoni [5] and with Schistosoma mansoni [6] were 22.2% and 20.3%, respectively.
Turning to `CC(=O)O[C@H]1[C@@H](CCC[P+](c2ccccc2)(c2ccccc2)c2ccccc2)C[C@]2(C)[C@H]3CC[C@@H]4[C@H]5[C@H](C(C)C)CC[C@]5(C(=O)OCc5ccccc5)CC[C@@]4(C)[C@]3(C)CC[C@H]2C1(C)C`, the result in the test on Schistosoma mansoni [1] was Active.
Consider `C=C(C[P+](c1ccccc1)(c1ccccc1)c1ccccc1)[C@@H]1CC[C@]2(C(=O)OC)CC[C@]3(C)[C@H](CC[C@@H]4[C@@]5(C)CC[C@H](OC(C)=O)C(C)(C)[C@@H]5CC[C@]43C)[C@@H]12.[Br-]`, for which the outcome in the test with Schistosoma mansoni [3] and in the test on Schistosoma mansoni [2] was Active. For the same molecule, the IC50 in the test on Schistosoma mansoni [1] amounted to 0.76 µg/mL. Moreover, the result with Schistosoma mansoni [4] was inactive. The inhibition in vivo at 400 mg/kg with Schistosoma mansoni [5] is 21.9%; with Schistosoma mansoni [6], 24.8%.
As to `COC(=O)[C@]12CC[C@@H](C(C)CI)[C@@H]1[C@H]1CC[C@@H]3[C@@]4(C)C[C@H](CCC[P+](c5ccccc5)(c5ccccc5)c5ccccc5)[C@H](OC(C)=O)C(C)(C)[C@@H]4CC[C@@]3(C)[C@]1(C)CC2.[I-]` (stereo partly drawn), the figures for the IC50 in the test on L6 and with Schistosoma mansoni [1] were 1.65 µg/mL and 6.35 µg/mL, respectively.
On to `COC(=O)[C@]12CC[C@@H](C(C)C)[C@@H]1[C@H]1CC[C@@H]3[C@@]4(C)C[C@H](CCC[P+](c5ccccc5)(c5ccccc5)c5ccccc5)[C@@H](OC(C)=O)C(C)(C)[C@@H]4CC[C@@]3(C)[C@]1(C)CC2.[Br-]`, for which, in the test with Schistosoma mansoni [1], the IC50 worked out at 1.37 µg/mL. For the same molecule, in the test on Schistosoma mansoni [2], the result was Active.
In the case of `CC(=O)O[C@H]1[C@@H](CCC[P+](c2ccccc2)(c2ccccc2)c2ccccc2)C[C@]2(C)[C@H]3CC[C@@H]4[C@H]5[C@H](C(C)C)CC[C@]5(C(=O)O)CC[C@@]4(C)[C@]3(C)CC[C@H]2C1(C)C`, the outcome in the test with Schistosoma mansoni [1] was Active.

The IC50 is the concentration that inhibits the measured activity by half. One may read the inhibition in vivo as the drop in the measured response relative to a control, in per cent.

The record behind these values is ChEMBL document CHEMBL3351597, “Synthesis and activity of new triphenylphosphonium derivatives of betulin and betulinic acid against Schistosoma mansoni in vitro and in vivo” (Bioorg Med Chem, 2014).
